# Laboratory results as given in patent US11292796B2 (SIGNAL PHARMACEUTICALS, LLC, priority 2008, dated 2022).
# Biological target: T1, mTOR (Homo sapiens, UniProt P42345)
# T1 construct: purchased Invitrogen PR8683A
# Assay: mTOR HTR-FRET assay
# Type: biochemical
# Conditions: read-out: Act. Level (IC50 in mTor HTR-FRET assay)
# Summary of the method: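 Test compounds, taken from 10 mM DMSO stocks and diluted, were mixed with mTOR enzyme (0.200 μg/mL) in Tris buffer pH 7.4 with 100 mM NaCl, 0.1% Tween-20 and 1 mM DTT. ATP/substrate addition initiated the reaction, alongside compound-free controls.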
# T1 sequence (P42345 1360-2549 limits assumed): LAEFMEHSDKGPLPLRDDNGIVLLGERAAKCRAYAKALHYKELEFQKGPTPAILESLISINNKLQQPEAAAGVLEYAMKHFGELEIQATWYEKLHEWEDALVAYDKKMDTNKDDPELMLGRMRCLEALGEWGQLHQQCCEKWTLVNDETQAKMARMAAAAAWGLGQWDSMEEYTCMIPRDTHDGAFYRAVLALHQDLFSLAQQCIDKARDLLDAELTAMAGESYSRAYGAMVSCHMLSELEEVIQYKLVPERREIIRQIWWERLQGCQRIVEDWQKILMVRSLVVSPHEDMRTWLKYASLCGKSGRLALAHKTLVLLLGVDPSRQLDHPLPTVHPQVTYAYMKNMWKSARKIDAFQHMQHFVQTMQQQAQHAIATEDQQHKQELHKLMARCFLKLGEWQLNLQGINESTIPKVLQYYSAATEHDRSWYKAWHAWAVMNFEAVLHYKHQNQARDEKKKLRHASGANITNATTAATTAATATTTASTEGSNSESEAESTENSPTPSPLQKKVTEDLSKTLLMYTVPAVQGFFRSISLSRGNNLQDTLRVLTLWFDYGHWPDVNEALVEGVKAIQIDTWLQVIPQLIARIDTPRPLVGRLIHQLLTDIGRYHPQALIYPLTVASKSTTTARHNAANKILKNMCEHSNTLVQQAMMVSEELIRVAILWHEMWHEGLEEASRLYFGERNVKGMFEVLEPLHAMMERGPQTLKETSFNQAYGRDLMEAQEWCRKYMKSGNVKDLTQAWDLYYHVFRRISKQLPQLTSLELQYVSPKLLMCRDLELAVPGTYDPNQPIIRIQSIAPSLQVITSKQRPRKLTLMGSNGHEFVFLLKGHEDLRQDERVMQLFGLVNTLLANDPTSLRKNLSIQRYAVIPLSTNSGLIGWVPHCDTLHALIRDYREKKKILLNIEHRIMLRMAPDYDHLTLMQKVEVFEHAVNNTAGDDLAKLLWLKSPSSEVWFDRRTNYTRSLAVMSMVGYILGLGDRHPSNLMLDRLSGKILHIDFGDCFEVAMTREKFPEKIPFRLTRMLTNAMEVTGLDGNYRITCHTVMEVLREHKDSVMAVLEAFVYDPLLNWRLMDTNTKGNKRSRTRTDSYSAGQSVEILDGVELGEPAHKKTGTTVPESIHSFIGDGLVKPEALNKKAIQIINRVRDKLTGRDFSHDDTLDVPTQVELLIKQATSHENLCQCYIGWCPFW
row,Compound,IC50 [nM]
1,"O=C1CNc2ncc(-c3cnc4[nH]ccc4c3)nc2N1CCC1CCOCC1 [Example 224, 7-(1H-pyrrolo[2,3-b]pyridin-5-yl)-1-(2-(tetrahydro-2H-pyran-4-yl)ethyl)-3,4-dihydropyrazino[2,3-b]pyrazin-2(1H)-one]",0.005 to 250
2,"CC(C)(O)c1ccc(-c2cnc3c(n2)N(Cc2cccc(C#N)c2)C(=O)CN3)cn1 [Example 207, 3-((7-(6-(2-hydroxypropan-2-yl)pyridin-3-yl)-2-oxo-3,4-dihydropyrazino[2,3-b]pyrazin-1(2H)-yl)methyl)benzonitrile]",0.005 to 250
3,"NC(=O)c1ccc(-c2cnc3c(n2)N(CCC2CCOCC2)C(=O)CN3)cc1 [Example 222, 4-(7-oxo-8-(2-(tetrahydro-2H-pyran-4-yl)ethyl)-5,6,7,8-tetrahydropyrazino[2,3-b]pyrazin-2-yl)benzamide]",0.005 to 250
4,"O=C1CNc2ncc(-c3ccc(-c4nc[nH]n4)nc3)nc2N1C1CCOCC1 [Example 162, 7-(6-(1H-1,2,4-triazol-3-yl)pyridin-3-yl)-1-(tetrahydro-2H-pyran-4-yl)-3,4-dihydropyrazino[2,3-b]pyrazin-2(1H)-one]",0.005 to 250
5,"O=C1CNc2ncc(-c3cnc4nc[nH]c4c3)nc2N1CCC1CCOCC1 [Example 218, 7-(1H-imidazo[4,5-b]pyridin-6-yl)-1-(2-(tetrahydro-2H-pyran-4-yl)ethyl)-3,4-dihydropyrazino[2,3-b]pyrazin-2(1H)-one]",1000 to 10000
6,"NC(=O)c1cccc(-c2cnc3c(n2)N(CCC2CCOCC2)C(=O)CN3)c1 [Example 205, 3-(7-oxo-8-(2-(tetrahydro-2H-pyran-4-yl)ethyl)-5,6,7,8-tetrahydropyrazino[2,3-b]pyrazin-2-yl)benzamide]",1000 to 10000
7,"CNc1nc2c(C)cc(-c3cnc4c(n3)N(CCOC)C(=O)CN4)cc2[nH]1 [Example 237, 1-(2-methoxyethyl)-7-(4-methyl-2-(methylamino)-1H-benzo[d]imidazol-6-yl)-3,4-dihydropyrazino[2,3-b]pyrazin-2(1H)-one]",0.005 to 250
8,"Cc1cc(-c2nnc[nH]2)ccc1-c1cnc2c(n1)N(CCC1CCOCC1)C(C)C(=O)N2 (stereo not shown) [Example 107, 3-methyl-6-(2-methyl-4-(4H-1,2,4-triazol-3-yl)phenyl)-4-(2-(tetrahydro-2H-pyran-4-yl)ethyl)-3,4-dihydropyrazino[2,3-b]pyrazin-2(1H)-one]",0.005 to 250
9,"CC(C)(O)c1ccc(-c2cnc3c(n2)N(CCc2ccccc2)CC(=O)N3)cn1 [Example 124, 6-(6-(2-hydroxypropan-2-yl)pyridin-3-yl)-4-phenethyl-3,4-dihydropyrazino[2,3-b]pyrazin-2(1H)-one]",250 to 500
10,"CC(C)N1C(=O)CNc2ncc(-c3ccc(-c4nc[nH]n4)nc3)nc21 [Example 172, 7-(6-(1H-1,2,4-triazol-3-yl)pyridin-3-yl)-1-isopropyl-3,4-dihydropyrazino[2,3-b]pyrazin-2(1H)-one]",0.005 to 250
11,"O=C1CN(CCC2CCOCC2)c2nc(-c3ccc(-c4nnc[nH]4)c(F)c3)cnc2N1 [Example 60, 6-(3-fluoro-4-(4H-1,2,4-triazol-3-yl)phenyl)-4-(2-(tetrahydro-2H-pyran-4-yl)ethyl)-3,4-dihydropyrazino[2,3-b]pyrazin-2(1H)-one]",0.005 to 250
12,"O=C1CN(CCC2CCOCC2)c2nc(-c3cnc4[nH]ccc4c3)cnc2N1 [Example 43, 6-(1H-pyrrolo[2,3-b]pyridin-5-yl)-4-(2-(tetrahydro-2H-pyran-4-yl)ethyl)-3,4-dihydropyrazino[2,3-b]pyrazin-2(1H)-one]",0.005 to 250
13,"Cc1cc(-c2nnc[nH]2)ccc1-c1cnc2c(n1)NC1(CC1)C(=O)N2 [Example 66, 7′-(2-methyl-4-(4H-1,2,4-triazol-3-yl)phenyl)-1′H-spiro[cyclopropane-1,2′-pyrazino[2,3-b]pyrazin]-3′(4′H)-one]",0.005 to 250
14,"COCCN1C(=O)CNc2ncc(-c3cc(F)c(-c4nc[nH]n4)cc3C)nc21 [Example 175, 7-(5-fluoro-2-methyl-4-(1H-1,2,4-triazol-3-yl)phenyl)-1-(2-methoxyethyl)-3,4-dihydropyrazino[2,3-b]pyrazin-2(1H)-one]",0.005 to 250
15,"COCCN1C(=O)CNc2ncc(-c3ccc(-c4nc[nH]n4)c(F)c3C)nc21 [Example 244, 7-(3-fluoro-2-methyl-4-(1H-1,2,4-triazol-3-yl)phenyl)-1-(2-methoxyethyl)-3,4-dihydropyrazino[2,3-b]pyrazin-2(1H)-one]",0.005 to 250
16,"CO[C@@H]1CC[C@@H](N2C(=O)CNc3ncc(-c4ccc(C(C)(C)O)nc4)nc32)C1 [Example 208, 7-(6-(2-hydroxypropan-2-yl)pyridin-3-yl)-1-((1R,3R)-3-methoxycyclopentyl)-3,4-dihydropyrazino[2,3-b]pyrazin-2(1H)-one]",0.005 to 250
17,"Cc1cc(-c2nnc[nH]2)ccc1-c1cnc2c(n1)N(CC1CCOCC1)C(C)(C)C(=O)N2 [Example 76, 3,3-dimethyl-6-(2-methyl-4-(4H-1,2,4-triazol-3-yl)phenyl)-4-((tetrahydro-2H-pyran-4-yl)methyl)-3,4-dihydropyrazino[2,3-b]pyrazin-2(1H)-one]",0.005 to 250

row,Compound,IC50 [nM]
1,"CO[C@H]1CC[C@H](N2CC(=O)Nc3ncc(-c4cnc(C(N)=O)cc4C)nc32)CC1 [Example 35, 5-(S-(trans-4-methoxycyclohexyl)-6-oxo-5,6,7,8-tetrahydropyrazino[2,3-b]pyrazin-2-yl)-4-methylpicolinamide]",0.005 to 250
2,"COCCN1C(=O)CNc2ncc(-c3ccc(-c4cc[nH]n4)cc3)nc21 [Example 186, 7-(4-(1H-pyrazol-3-yl)phenyl)-1-(2-methoxyethyl)-3,4-dihydropyrazino[2,3-b]pyrazin-2(1H)-one]",0.005 to 250
3,"Cc1cc(-c2nc[nH]n2)c(F)cc1-c1cnc2c(n1)N(C(C)C)C(=O)CN2 [Example 176, 7-(5-fluoro-2-methyl-4-(1H-1,2,4-triazol-3-yl)phenyl)-1-isopropyl-3,4-dihydropyrazino[2,3-b]pyrazin-2(1H)-one]",0.005 to 250
4,CO[C@H]1CC[C@H](N2CC(=O)Nc3ncc(-c4ccc(-c5nc[nH]n5)nc4)nc32)CC1 [Example 12],0.005 to 250
5,"C[C@H](O)c1ccc(-c2cnc3c(n2)N(CCC2CCOCC2)C(=O)CN3)cn1 [Example 253, (S)-7-(6-(1-hydroxyethyl)pyridin-3-yl)-1-(2-(tetrahydro-2H-pyran-4-yl)ethyl)-3,4-dihydropyrazino[2,3-b]pyrazin-2(1H)-one]",0.005 to 250
6,"O=C1CN(Cc2cccc(C(F)(F)F)c2)c2nc(-c3ccc(-c4nnc[nH]4)cc3)cnc2N1 [Example 145, 6-(4-(4H-1,2,4-triazol-3-yl)phenyl)-4-(3-(trifluoromethyl)benzyl)-3,4-dihydropyrazino[2,3-b]pyrazin-2(1H)-one]",0.005 to 250
7,"CO[C@@H]1CC[C@@H](N2CC(=O)Nc3ncc(-c4ccc(-c5nnc[nH]5)nc4C)nc32)C1 [Example 40, 4-((1R,3R)-3-methoxycyclopentyl)-6-(2-methyl-6-(4H-1,2,4-triazol-3-yl)pyridin-3-yl)-3,4-dihydropyrazino[2,3-b]pyrazin-2(1H)-one]",0.005 to 250
8,"COCCCN1CC(=O)Nc2ncc(-c3ccc(C(C)(C)O)nc3)nc21 [Example 114, 6-(6-(2-hydroxypropan-2-yl)pyridin-3-yl)-4-(3-methoxypropyl)-3,4-dihydropyrazino[2,3-b]pyrazin-2(1H)-one]",1000 to 10000
9,"C[C@@H](O)c1ccc(-c2cnc3c(n2)N(CCC2CCOCC2)CC(=O)N3)cn1 [Example 75, (R)-6-(6-(1-hydroxyethyl)pyridin-3-yl)-4-(2-(tetrahydro-2H-pyran-4-yl)ethyl)-3,4-dihydropyrazino[2,3-b]pyrazin-2(1H)-one]",0.005 to 250
10,"CO[C@@H]1CC[C@H](N2C(=O)CNc3ncc(-c4ccc(-c5nnc[nH]5)nc4C)nc32)C1 [Example 226, 1-((1S,3R)-3-methoxycyclopentyl)-7-(2-methyl-6-(4H-1,2,4-triazol-3-yl)pyridin-3-yl)-3,4-dihydropyrazino[2,3-b]pyrazin-2(1H)-one]",0.005 to 250
11,"Cc1nc(-c2nc[nH]n2)ccc1-c1cnc2c(n1)N(CCO)C(=O)CN2 [Example 274, 1-(2-hydroxyethyl)-7-(2-methyl-6-(1H-1,2,4-triazol-3-yl)pyridin-3-yl)-3,4-dihydropyrazino[2,3-b]pyrazin-2(1H)-one]",0.005 to 250
12,"O=C1CN(CCC2CCOCC2)c2nc(-c3ccc4[nH]ncc4c3)cnc2N1 [Example 69, 6-(1H-indazol-5-yl)-4-(2-(tetrahydro-2H-pyran-4-yl)ethyl)-3,4-dihydropyrazino[2,3-b]pyrazin-2(1H)-one]",250 to 500
13,"CO[C@@H]1CC[C@H](N2CC(=O)Nc3ncc(-c4ccc(C(C)(C)O)nc4)nc32)C1 [Example 52, 6-(6-(2-hydroxypropan-2-yl)pyridin-3-yl)-4-((1S,3R)-3-methoxycyclopentyl)-3,4-dihydropyrazino[2,3-b]pyrazin-2(1H)-one]",0.005 to 250
14,"Cc1cc(C(N)=O)ncc1-c1cnc2c(n1)N(C(C)C)C(=O)CN2 [Example 180, 5-(8-isopropyl-7-oxo-5,6,7,8-tetrahydropyrazino[2,3-b]pyrazin-2-yl)-4-methylpicolinamide]",0.005 to 250
15,"CO[C@H]1CC[C@@H](N2C(=O)CNc3ncc(-c4ccc(-c5nnc[nH]5)nc4C)nc32)C1 [Example 228, 1-((1R,3S)-3-methoxycyclopentyl)-7-(2-methyl-6-(4H-1,2,4-triazol-3-yl)pyridin-3-yl)-3,4-dihydropyrazino[2,3-b]pyrazin-2(1H)-one]",0.005 to 250
16,"CCN1C(=O)CNc2ncc(-c3ccc(-c4nc[nH]n4)nc3)nc21 [Example 164, 7-(6-(1H-1,2,4-triazol-3-yl)pyridin-3-yl)-1-ethyl-3,4-dihydropyrazino[2,3-b]pyrazin-2(1H)-one]",0.005 to 250
17,"O=C1CNc2ncc(-c3ccnc4[nH]ccc34)nc2N1CCC1CCOCC1 [Example 157, 7-(1H-pyrrolo[2,3-b]pyridin-4-yl)-1-(2-(tetrahydro-2H-pyran-4-yl)ethyl)-3,4-dihydropyrazino[2,3-b]pyrazin-2(1H)-one]",0.005 to 250
